The values below come from patent US20070066672A1, “Benzimidazole derivatives and use thereof as peptide deformylase inhibitors” (Arpida A/S, priority 2003, published 2007).

Experiment [1] deals with T1, Peptide Deformylase (PDF) (Escherichia coli, UniProt P0A6K3).
T1 construct: made in house
Kind of experiment: Bacterial peptide deformylase (PDF) assay, colorimetric cell free, enzyme from E. coli. Type of experiment: biochemical. From the text:
(§1) To find inhibitors of Peptide Deformylase (PDF), a colorimetric cell free assay for measuring the enzymatic activity of PDF has been adapted to the microtiter plate format (96 wells). The assay comprises three components, purified PDF, f-Met-Ala as substrate and TNBS as the detecting agent of primary amino groups. The resulting TNP_NH-Met-Ala sulfite complex can be detected at 420 nm. PDF enzymes, containing Fe^2+ as the native metal, are purified and are stabilized by the addition of tris(2-carboxyethyl)phosphine (TCEP).
(§2) The IC50 value of a compound of the invention as a bacterial PDF inhibitor was determined using the following assay.
(§3) Assay buffer 0.1 M MOPS pH was adjusted to 7.2 with NaOH, containing 0.25 M NaCl, 100 μg/mL catalase and 1 mg/mL BSA.
(§4) E. coli enzyme (2.5 mg/ml) 10 μl+290 μl Assay buffer, 1 μl per ml enzyme mix. S. aureus (15 mg/ml) 10 μl+990 μl Assay buffer, 0.3 μl per ml enzyme mix.
(§5) Substrate mix: 10 mM f-Met-Ala was made up from 200 mM f-Met-Ala in methanol with assay buffer.
(§6) TNBS solution: Freshly dilute 1 M TNBS stock solution diluted 1:10 with water.
(§7) Buffer C: 0.5 M borate buffer adjusted to pH 9.5 with NaOH.
(§8) Buffer D: 0.2 ml of freshly prepared 0.5 M Na2SO3 was mixed with 9.8 mL of 0.5M NaH2PO4.
(§9) Inhibitor solution: 2 mM Sodium 4-(hydroxymercurio)benzoate in assay buffer.
(§10) Compound mix: Compound of formula I dissolved in DMSO in a 10 mg/mL stock solution. Further dilutions were made in DMSO in the concentration range between 0.05 to 100 mM.
(§11) The assay was performed in a 96 Microtiter plate containing test compound. To each well containing test compound mix was added 75 microliter of enzyme mix from E. coli followed by the addition of 25 microliter of substrate mix. The resulting mix was incubated for 30 minutes at room temperature with shaking. TNBS solution (50 microliter/well) was added and the resulting mixture was incubated for 15 minutes under shaking. Buffer C was then added (20 microliter/well). After incubating at room temperature for 15 minutes under shaking, buffer D was added (50 microliter/well). The optical […] was then measured at 420 nm, thereby determining the IC50 value.

Experiment [2] deals with T2, Peptide Deformylase (PDF) (Staphylococcus aureus, UniProt P68826).
T2 construct: made in house
T2 sequence (P68826 1-183): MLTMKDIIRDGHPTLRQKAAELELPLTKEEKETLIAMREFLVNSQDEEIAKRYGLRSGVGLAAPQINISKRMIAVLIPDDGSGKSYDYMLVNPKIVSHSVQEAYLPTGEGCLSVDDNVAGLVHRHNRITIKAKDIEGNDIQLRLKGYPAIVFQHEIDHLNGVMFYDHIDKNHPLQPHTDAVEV
Description: Bacterial peptide deformylase (PDF) assay, colorimetric cell free, enzyme from S. aureus. The experiment is classed as biochemical. The following applies: f-Met-Ala substrate, TNBS detection at 420 nm.
Text: as §1, §2, §3, §4, §5, §6, §7, §8, §9, §10, §11
The assay was repeated using enzyme mix from S. aureus.

The structures appear in SMILES notation.

T1 sequence (P0A6K3 whole entry): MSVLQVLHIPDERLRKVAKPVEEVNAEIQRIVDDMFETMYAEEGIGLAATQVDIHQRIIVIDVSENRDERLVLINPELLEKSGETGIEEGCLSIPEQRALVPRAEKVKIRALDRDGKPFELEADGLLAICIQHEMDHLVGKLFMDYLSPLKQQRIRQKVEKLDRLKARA

With `COC(=O)CNC(=O)c1ccc2c(c1)nc(C(CCSC)NC(=O)CCC(=O)O)n2C1CC1` (stereo not shown) [Example 16, N-{1-[1-Cyclopropyl-5-(methoxycarbonylmethyl-carbamoyl)-1H-benzoimidazol-2-yl]-3-methylsulfanyl-propyl}-succinamic acid], the results for the IC50 in experiment [1] and in experiment [2] were 47.2 µM and 17.6 µM, respectively.
Regarding `COC(=O)CNC(=O)c1ccc2c(c1)nc(C(CCCCN)NC(=O)CCS)n2Cc1ccccc1` (stereo not shown) [Example 49, ({2-[5-Amino-1-(3-mercapto-propionylamino)-pentyl]-1-benzyl-1H-benzoimidazole-5-carbonyl}-amino)-acetic acid methyl ester], the IC50 (usually the concentration that gives 50% inhibition) in experiment [1] amounted to 5.2 µM; in experiment [2] it was 2.4 µM.
The corresponding values for `COC(=O)CNC(=O)c1ccc2c(c1)nc(C(Cc1cccc3ccccc13)NC(=O)CCC(=O)NO)n2Cc1ccccc1` (stereo not shown) [Example 46, ({1-Benzyl-2-[1-(3-hydroxycarbamoyl-propionylamino)-2-naphthalen-1-yl-ethyl]-1H-benzoimidazole-5-carbonyl}-amino)-acetic acid methyl ester] are 6.5 µM and 0.9 µM.
The corresponding values for `CCCCn1c(C(Cc2cccc3ccccc23)NC(=O)CCC(=O)O)nc2cc(C(=O)NCC(=O)OC)ccc21` (stereo not shown) [Example 18] are 2.7 µM and 0.074 µM.
Consider `COC(=O)CNC(=O)c1ccc2c(c1)nc(C(CCCCN)NC(=O)CCS)n2CC1CCCCC1` (stereo not shown) [Example 19, ({2-[5-Amino-1-(3-mercapto-propionylamino)-pentyl]-1-cyclohexylmethyl-1H-benzoimidazole-5-carbonyl}-amino)-acetic acid methyl ester], for which the IC50 in experiment [1] turned out to be 38.1 µM; in experiment [2], 27.1 µM.
The corresponding values for `CCC(NC(=O)CCC(=O)NO)c1nc2cc(C(=O)NCC(=O)OC)ccc2n1Cc1ccco1` (stereo not shown) [Example 31, ({1-Furan-2-ylmethyl-2-[1-(3-hydroxycarbamoyl-propionylamino)-propyl]-1H-benzoimidazole-5-carbonyl}-amino)-acetic acid methyl ester] are 0.098 µM and 0.151 µM.
Compound `COC(=O)CNC(=O)c1ccc2c(c1)nc(C(CCSC)NC(=O)CCC(=O)NO)n2C1CC1` (stereo not shown) [Example 36, ({1-Cyclopropyl-2-[1-(3-hydroxycarbamoyl-propionylamino)-3-methylsulfanyl-propyl]-1H-benzoimidazole-5-carbonyl}-amino)-acetic acid methyl ester] yielded an IC50 in experiment [2] of 1.5 µM.
`COC(=O)CNC(=O)c1ccc2c(c1)nc(C(CC(C)C)NC(=O)CCC(=O)NO)n2C1CC1` (stereo not shown) [Example 33, ({1-Cyclopropyl-2-[1-(3-hydroxycarbamoyl-propionylamino)-3-methyl-butyl]-1H-benzoimidazole-5-carbonyl}-amino)-acetic acid methyl ester] registered an IC50 in experiment [2] of 0.496 µM.
In turn, `CCCCn1c(C(Cc2cccc3ccccc23)NC(=O)CCC(=O)NO)nc2cc(C(=O)NCC(=O)OC)ccc21` (stereo not shown) [Example 45, ({1-Butyl-2-[1-(3-hydroxycarbamoyl-propionylamino)-2-naphthalen-1-yl-ethyl]-1H-benzoimidazole-5-carbonyl}-amino)-acetic acid methyl ester] returned an IC50 in experiment [1] of 5.8 µM.
For the compound `COC(=O)CNC(=O)c1ccc2c(c1)nc(C(CCCCN)NC(=O)CCS)n2C1CC1` (stereo not shown) [Example 48, ({2-[5-Amino-1-(3-mercapto-propionylamino)-pentyl]-1-cyclopropyl-1H-benzoimidazole-5-carbonyl}-amino)-acetic acid methyl ester], the values for the IC50 in experiment [1] and in experiment [2] were 3.6 µM and 2 µM, respectively.
Turning to `COC(=O)CNC(=O)c1ccc2c(c1)nc(C(Cc1cccc3ccccc13)NC(=O)CCC(=O)NO)n2CCc1cccs1` (stereo not shown) [Example 44, {[2-[1-(3-Hydroxycarbamoyl-propionylamino)-2-naphthalen-1-yl-ethyl]-1-(2-thiophen-2-yl-ethyl)-1H-benzoimidazole-5-carbonyl]-amino}-acetic acid methyl ester], in experiment [1], half-maximal inhibition (IC50) required 3.1 µM.
For the compound `COC(=O)CNC(=O)c1ccc2c(c1)nc(C(Cc1ccc(O)cc1)NC(=O)CCC(=O)O)n2C1CC1` (stereo not shown) [Example 25, N-[1-[1-Cyclopropyl-5-(methoxycarbonylmethyl-carbamoyl)-1H-benzoimidazol-2-yl]-2-(4-hydroxyphenyl)-ethyl]-succinamic acid], the half-inhibitory concentration (IC50) was determined as 12.8 µM in experiment [1] and 28.3 µM in experiment [2].
With `COC(=O)CNC(=O)c1ccc2c(c1)nc(C(CCc1ccccc1)NC(=O)CCC(=O)NO)n2C1CC1` (stereo not shown) [Example 41, ({1-Cyclopropyl-2-[1-(3-hydroxycarbamoyl-propionylamino)-3-phenyl-propyl]-1H-benzoimidazole-5-carbonyl}-amino)-acetic acid methyl ester], the 50% inhibitory concentration (IC50) is 2.3 µM in experiment [1] and 0.363 µM in experiment [2].
The corresponding values for `COC(=O)CNC(=O)c1ccc2c(c1)nc(C(Cc1ccccc1)NC(=O)CCC(=O)O)n2CCO` (stereo not shown) [Example 27, N-{1-[1-(2-Hydroxy-ethyl)-5-(methoxycarbonylmethyl-carbamoyl)-1H-benzoimidazol-2-yl]-2-phenyl-ethyl}-succinamic acid] are 41.8 µM and 27.7 µM.
The corresponding values for `COC(=O)CNC(=O)c1ccc2c(c1)nc(C(Cc1ccccc1)NC(=O)CCC(=O)NO)n2Cc1ccc(Cl)cc1` (stereo not shown) [Example 40, ({1-(4-Chloro-benzyl)-2-[1-(3-hydroxycarbamoyl-propionylamino)-2-phenyl-ethyl]-1H-benzoimidazole-5-carbonyl}-amino)-acetic acid methyl ester] are 1.4 µM and 0.021 µM.
`COC(=O)CNC(=O)c1ccc2c(c1)nc(C(CCSC)NC(=O)CCC(=O)O)n2Cc1ccccc1` (stereo not shown) [Example 3, N-{1-[1-Benzyl-5-(methoxycarbonylmethyl-carbamoyl)-1H-benzoimidazol-2-yl]-3-methylsulfanyl-propyl}-succinamic acid]: the half-maximal inhibitory concentration (IC50) in experiment [1] came out at 80 µM; in experiment [2] it was 31.4 µM.
The corresponding values for `COC(=O)CNC(=O)c1ccc2c(c1)nc(C(CCSC)NC(=O)CCC(=O)NO)n2Cc1ccccc1` (stereo not shown) [Example 38] are 25.8 µM and 3.5 µM.
For `COC(=O)CNC(=O)c1ccc2c(c1)nc(C(CCc1ccccc1)NC(=O)CCC(=O)O)n2Cc1ccccc1Cl` (stereo not shown) [Example 9, N-{1-[1-(2-Chloro-benzyl)-5-(methoxycarbonylmethyl-carbamoyl)-1H-benzoimidazol-2-yl]-3-phenyl-propyl}-succinamic acid], the 50% inhibitory concentration (IC50) in experiment [1] came out at 27.8 µM; in experiment [2], 18 µM.
With `COC(=O)CNC(=O)c1ccc2c(c1)nc(C(CC(C)C)NC(=O)CCC(=O)NO)n2Cc1ccccc1` (stereo not shown) [Example 35, ({1-Benzyl-2-[1-(3-hydroxycarbamoyl-propionylamino)-3-methyl-butyl]-1H-benzoimidazole-5-carbonyl}-amino)-acetic acid methyl ester], the IC50 in experiment [2] amounted to 0.804 µM.
In experiment [1], `COC(=O)CNC(=O)c1ccc2c(c1)nc(C(Cc1ccccc1)NC(=O)CCC(=O)NO)n2Cc1ccco1` (stereo not shown) [Example 39, ({1-Furan-2-ylmethyl-2-[1-(3-hydroxycarbamoyl-propionylamino)-2-phenyl-ethyl]-1H-benzoimidazole-5-carbonyl}-amino)-acetic acid methyl ester] returned an IC50 of 1.5 µM.
Same read-out and setting: to `COC(=O)CNC(=O)c1ccc2c(c1)nc(C(CCSC)NC(=O)CCC(=O)NO)n2CC1CCCCC1` (stereo not shown) [Example 37, ({1-Cyclohexylmethyl-2-[1-(3-hydroxycarbamoyl-propionylamino)-3-methylsulfanyl-propyl]-1H-benzoimidazole-5-carbonyl}-amino)-acetic acid methyl ester] belongs 0.317 µM; to `COC(=O)CNC(=O)c1ccc2c(c1)nc(C(Cc1cccc3ccccc13)NC(=O)CCC(=O)O)n2Cc1ccccc1` (stereo not shown) [Example 30, N-{1-[1-Benzyl-5-(methoxycarbonylmethyl-carbamoyl)-1H-benzoimidazol-2-yl]-2-naphthalen-1-yl-ethyl}-succinamic acid], 7 µM.
As to `CCCCn1c(C(CC(C)C)NC(=O)CCC(=O)NO)nc2cc(C(=O)NCC(=O)OC)ccc21` (stereo not shown) [Example 34, ({1-Butyl-2-[1-(3-hydroxycarbamoyl-propionylamino)-3-methyl-butyl]-1H-benzoimidazole-5-carbonyl}-amino)-acetic acid methyl ester], the concentration for half-maximal inhibition (IC50) in experiment [2] was determined as 2.27 µM.
